Patent US20110151469A1, “INTERFERON EPSILON (IFNE1) AS A MARKER FOR TARGETED CANCER THERAPY” (PIRAMAL LIFE SCIENCES LIMITED, priority 2008, published 2011)
“Also recorded” adds a separate entry of the source.

Tested on: IFNE1 mRNA in HCT116 cells
Assay: QRT-PCR of IFNE1 transcript level in HCT116 cells treated with CDK and non-CDK inhibitors
Type: cell-based, human
Conditions: 6 hours, P276-00 250 nM, Flavopiridol 200 nM, Fascaplysin 500 nM, Roscovitine 20 μM, Olomoucine 180 μM, DRB 50 μM, 5-Fluorouracil 800 nM, Camptothecin 30 nM, Etoposide 3 μM, Vinblastin 1.5 μM, Quercitin 750 nM, Paclitaxel 600 nM, Doxorubicin 100 nM
Procedure: HCT116 cells were treated with various CDK inhibitors [P276-00 (250 nM), Flavopiridol (200 nM), Fascaplysin (500 nM), Roscovitine (20 μM), Olomoucine (180 μM), 5,6-dichloro-1-beta-D-ribofuranosylbenzimidazole (DRB, 50 μM)] and non-CDK inhibitors [5-Fluorouracil (800 nM), Camptothecin (30 nM), Etoposide (3 μM), Vinblastin (1.5 μM), Quercitin (750 nM), Paclitaxel (600 nM), Doxorubicin (100 nM)] for 6 hours. The level of IFNE1 mRNA was estimated using Real Time RT-PCR. Using Actin gene for normalization, relative IFNE1 expression level was plotted as log fold change.
To study if IFNE1 expression is a result of CDK inhibition, HCT116 cells were treated with a variety of CDK and non-CDK inhibitors and IFNE1 transcript level were measured using quantitative QRT-PCR. HCT116 cells were chosen for this assay because IFNE1 level seems to be most regulated in this cell line. The cells were treated with a variety of CDK inhibitors [P276-00 (250 nM), Flavopiridol (200 nM), Fascaplysin (500 nM), Roscovitine (20 μM), Olomoucine (180 μM), 5,6-dichloro-1-beta-D-ribofuranosylbenzimidazole (DRB) (50 μM)] and non-CDK inhibitors [5-Fluorouracil (800 nM), Camptothecin (30 nM), Etoposide (3 μM), Vinblastin (1.5 μM), Quercitin (750 nM), Paclitaxel (600 nM), Doxorubicin (100 nM)] for 6 hours and the IFNE1 transcript level were estimated. All inhibitors were purchased from Sigma and used at IC50 values described in literature.

SMILES | change of IFNE1 mRNA level
O=c1[nH]cc(F)c(=O)[nH]1 [5-Fluorouracil] | do not cause a change
O=C1c2ccccc2-[n+]2ccc3c([nH]c4ccccc43)c21 [Fascaplysin] | upregulation
CC[C@H](CO)Nc1nc(NCc2ccccc2)c2ncn(C(C)C)c2n1 [Roscovitine] | upregulation; also recorded: potentiated IFNE1 level maximally
COc1cccc2c1C(=O)c1c(O)c3c(c(O)c1C2=O)C[C@@](O)(C(=O)CO)C[C@@H]3O[C@H]1C[C@H](N)[C@H](O)[C@H](C)O1 [Doxorubicin] | do not cause a change
CC[C@@]1(O)C(=O)OCc2c1cc1n(c2=O)Cc2cc3ccccc3nc2-1 [Camptothecin] | do not cause a change
CC[C@]1(O)C[C@@H]2CN(CCc3c([nH]c4ccccc34)[C@@](C(=O)OC)(c3cc4c(cc3OC)N(C)[C@H]3[C@@](O)(C(=O)OC)[C@H](OC(C)=O)[C@]5(CC)C=CCN6CC[C@]43[C@@H]65)C2)C1 [Vinblastin] | do not cause a change
COc1cc([C@@H]2c3cc4c(cc3[C@@H](O[C@@H]3O[C@@H]5CO[C@@H](C)O[C@H]5[C@H](O)[C@H]3O)[C@H]3COC(=O)[C@H]23)OCO4)cc(OC)c1O [Etoposide] | do not cause a change
OC[C@H]1O[C@@H](n2cnc3cc(Cl)c(Cl)cc32)[C@H](O)[C@@H]1O [DRB, 5,6-dichloro-1-beta-D-ribofuranosylbenzimidazole] | upregulation
CC(=O)O[C@H]1C(=O)[C@@]2(C)[C@H]([C@H](OC(=O)c3ccccc3)[C@]3(O)C[C@H](OC(=O)[C@H](O)[C@@H](NC(=O)c4ccccc4)c4ccccc4)C(C)=C1C3(C)C)[C@]1(OC(C)=O)CO[C@@H]1C[C@@H]2O [Paclitaxel] | do not cause a change
O=c1c(O)c(-c2ccc(O)c(O)c2)oc2cc(O)cc(O)c12 [Quercitin] | do not cause a change
